# Test results: patent publication US20090306060A1 (priority 2004, published 2009)
# Like-named read-outs stand apart in the source and are kept apart here.
# Test system: hybrid corn varieties
# Format: in vivo
# Conditions: for GY BU (2) (Grain Yield in bushels) / PC # (1): IFSA Inbred FR-A
# [1] = Fludioxonil 3.5 GA/100 Kg seed, Azoxystrobin 1 GA/100 Kg seed
# [2] = IFSA Inbred FR-C, Fludioxonil 3.5 GA/100 Kg seed, Azoxystrobin 1 GA/100 Kg seed
# [3] = IFSA Inbred FR-D, Fludioxonil 3.5 GA/100 Kg seed, Azoxystrobin 1 GA/100 Kg seed
# [4] = IFSA Inbred FR-F, Fludioxonil 3.5 GA/100 Kg seed, Azoxystrobin 1 GA/100 Kg seed
# [5] = IFSA Inbred FR-G, Fludioxonil 3.5 GA/100 Kg seed, Azoxystrobin 1 GA/100 Kg seed
# [6] = IFSA Inbred W-A, Fludioxonil 3.5 GA/100 Kg seed, Azoxystrobin 1 GA/100 Kg seed
# [7] = IFSA Inbred W-B, Fludioxonil 3.5 GA/100 Kg seed, Azoxystrobin 1 GA/100 Kg seed
# [8] = IFSA Inbred FR-C, Fludioxonil 2.5 GA/100 Kg seed
# [9] = IFSA Inbred FR-D, Fludioxonil 2.5 GA/100 Kg seed
# [10] = IFSA Inbred FR-F, Fludioxonil 2.5 GA/100 Kg seed
# [11] = IFSA Inbred FR-G, Fludioxonil 2.5 GA/100 Kg seed
# [12] = IFSA Inbred W-A, Fludioxonil 2.5 GA/100 Kg seed
# [13] = IFSA Inbred W-B, Fludioxonil 2.5 GA/100 Kg seed
compound,measurement,setting,value
"CO/C=C(/C(=O)OC)c1ccccc1Oc1cc(Oc2ccccc2C#N)ncn1 [Azoxystrobin, azoxystrobin]",GY BU (2) (Grain Yield in bushels),[1],168 a BU
same,PC # (1),[1],23232 a
same,GY BU,[2],187 ab BU
same,PC #,[2],24086 ab
same,GY BU,[3],193 a BU
same,PC #,[3],23574 a
same,GY BU,[4],179 b BU
same,PC #,[4],18107 bc
same,GY BU,[5],89 a BU
same,PC #,[5],13153 a
same,GY BU,[6],173 ab BU
same,PC #,[6],19645 a
same,GY BU,[7],204 a BU
same,PC #,[7],23574 ab
"N#Cc1c[nH]cc1-c1cccc2c1OC(F)(F)O2 [Fludioxonil, fludioxonil]",GY BU (2) (Grain Yield in bushels),Fludioxonil 2.5 GA/100 Kg seed,181 a BU
same,PC # (1),Fludioxonil 2.5 GA/100 Kg seed,23403 a
same,GY BU (2) (Grain Yield in bushels),[1],180 a BU
same,PC # (1),[1],23744 a
same,GY BU,[8],198 a BU
same,PC #,[8],24428 a
same,GY BU,[2],176 b BU
same,PC #,[2],23915 ab
same,GY BU,[9],184 a BU
same,PC #,[9],23574 a
same,GY BU,[3],185 a BU
same,PC #,[3],24599 a
same,GY BU,[10],183 b BU
same,PC #,[10],19986 b
same,GY BU,[4],225 a BU
same,PC #,[4],24428 a
same,GY BU,[11],83 a BU
same,PC #,[11],13495 a
same,GY BU,[5],85 a BU
same,PC #,[5],11787 ab
same,GY BU,[12],172 ab BU
same,PC #,[12],19474 a
same,GY BU,[6],180 ab BU
same,PC #,[6],19986 a
same,GY BU,[13],215 a BU
same,PC #,[13],24599 a
same,GY BU,[7],204 a BU
same,PC #,[7],22036 b
